Measured values as given in PubChem BioAssay AID1963853 (Molecular Pharmacology Branch, DTP, NCI, 2024).

Test system: 266295-075-R-J1-PDC spheroid viability
Assay: Anticancer human tumor 266295-075-R-J1-PDC patient-derived head and neck squamous carcinoma cell line growth inhibition [POLQ]
Conditions: spheroids with HUVEC and MSC; for IC50: curve of first compound; for viability, T/C: stronger effect = lower value; active means viability on the fitted dose curve at most 10% of control; inactive means the rest
Procedure, shortened: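 Patient-derived tumour cells were co-cultured with HUVEC and mesenchymal stem cells as multicellular spheroids at 37 °C. They were treated with POLQ inhibitors (novobiocin, ART-558, RP6685) alone or combined with other agents. Top concentrations were at or near clinical Cmax (otherwise 10 microM; SN-38 at 1 microM), decreasing in half-log steps.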

[1] = second compound 0.0316 µM, first compound 0.0316 µM
[2] = second compound 0.0316 µM, first compound 0.1 µM
[3] = second compound 0.1 µM, first compound 0.0316 µM
[4] = second compound 0.1 µM, first compound 0.1 µM
[5] = second compound 0.316 µM, first compound 0.0316 µM
[6] = second compound 0.316 µM, first compound 0.1 µM
[7] = second compound 1 µM, first compound 0.0316 µM
[8] = second compound 1 µM, first compound 0.1 µM
[9] = second compound 3.16 µM, first compound 0.0316 µM
[10] = second compound 3.16 µM, first compound 0.1 µM
[11] = second compound 10 µM, first compound 0.0316 µM
[12] = second compound 10 µM, first compound 0.1 µM
[13] = second compound 0.0316 µM, first compound 0.316 µM
[14] = second compound 0.0316 µM, first compound 1 µM
[15] = second compound 0.0316 µM, first compound 3.16 µM
[16] = second compound 0.0316 µM, first compound 10 µM
[17] = second compound 0.1 µM, first compound 0.316 µM
[18] = second compound 0.1 µM, first compound 1 µM
[19] = second compound 0.1 µM, first compound 3.16 µM
[20] = second compound 0.1 µM, first compound 10 µM
[21] = second compound 0.316 µM, first compound 0.316 µM
[22] = second compound 0.316 µM, first compound 1 µM
[23] = second compound 0.316 µM, first compound 3.16 µM
[24] = second compound 0.316 µM, first compound 10 µM
[25] = second compound 1 µM, first compound 0.316 µM
[26] = second compound 1 µM, first compound 1 µM
[27] = second compound 1 µM, first compound 3.16 µM
[28] = second compound 1 µM, first compound 10 µM
[29] = second compound 3.16 µM, first compound 0.316 µM
[30] = second compound 3.16 µM, first compound 1 µM
[31] = second compound 3.16 µM, first compound 3.16 µM
[32] = second compound 3.16 µM, first compound 10 µM
[33] = second compound 10 µM, first compound 0.316 µM
[34] = second compound 10 µM, first compound 1 µM
[35] = second compound 10 µM, first compound 3.16 µM
[36] = second compound 10 µM, first compound 10 µM
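Further: spheroids exposed to compounds for seven days before readout.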

CC[C@@]1(O)C(=O)OCc2c1cc1n(c2=O)Cc2cc3c(CN(C)C)c(O)ccc3nc2-1 + COC1C(OC(N)=O)C(O)C(Oc2ccc3c(O)c(NC(=O)c4ccc(O)c(CC=C(C)C)c4)c(=O)oc3c2C)OC1(C)C
> 0.1 µM: IC50 (second compound 0.0316 µM) | IC50 (second compound 0.1 µM) | IC50 (second compound 0.316 µM) | IC50 (second compound 1 µM) | IC50 (second compound 3.16 µM) | IC50 (second compound 10 µM)
inactive: viability, T/C (second compound 0.0316 µM, first compound 0.000316 µM) 84.1% | viability, T/C (second compound 0.0316 µM, first compound 0.001 µM) 99.8% | viability, T/C (second compound 0.0316 µM, first compound 0.00316 µM) 84.9% | viability, T/C (second compound 0.0316 µM, first compound 0.01 µM) 96.9% | viability, T/C [1] 89.4% | viability, T/C [2] 104% | viability, T/C (second compound 0.1 µM, first compound 0.000316 µM) 87.2% | viability, T/C (second compound 0.1 µM, first compound 0.001 µM) 87.7% | viability, T/C (second compound 0.1 µM, first compound 0.00316 µM) 90.5% | viability, T/C (second compound 0.1 µM, first compound 0.01 µM) 100% | viability, T/C [3] 103% | viability, T/C [4] 88% | viability, T/C (second compound 0.316 µM, first compound 0.000316 µM) 102% | viability, T/C (second compound 0.316 µM, first compound 0.001 µM) 85.4% | viability, T/C (second compound 0.316 µM, first compound 0.00316 µM) 75.8% | viability, T/C (second compound 0.316 µM, first compound 0.01 µM) 98.2% | viability, T/C [5] 89.4% | viability, T/C [6] 89.1% | viability, T/C (second compound 1 µM, first compound 0.000316 µM) 99% | viability, T/C (second compound 1 µM, first compound 0.001 µM) 90.8% | viability, T/C (second compound 1 µM, first compound 0.00316 µM) 109% | viability, T/C (second compound 1 µM, first compound 0.01 µM) 89.2% | viability, T/C [7] 114% | viability, T/C [8] 100% | viability, T/C (second compound 3.16 µM, first compound 0.000316 µM) 114% | viability, T/C (second compound 3.16 µM, first compound 0.001 µM) 97% | viability, T/C (second compound 3.16 µM, first compound 0.00316 µM) 85.3% | viability, T/C (second compound 3.16 µM, first compound 0.01 µM) 91.2% | viability, T/C [9] 88.3% | viability, T/C [10] 96.9% | viability, T/C (second compound 10 µM, first compound 0.000316 µM) 95.8% | viability, T/C (second compound 10 µM, first compound 0.001 µM) 98.5% | viability, T/C (second compound 10 µM, first compound 0.00316 µM) 97.8% | viability, T/C (second compound 10 µM, first compound 0.01 µM) 107% | viability, T/C [11] 95.4% | viability, T/C [12] 94.5%

CC(C)n1c(=O)n(C)c2cnc3cc(F)c(-c4ccc(OCCCN5CCCCC5)nc4)cc3c21 + COC1C(OC(N)=O)C(O)C(Oc2ccc3c(O)c(NC(=O)c4ccc(O)c(CC=C(C)C)c4)c(=O)oc3c2C)OC1(C)C
> 10 µM: IC50 (second compound 0.0316 µM) | IC50 (second compound 0.1 µM) | IC50 (second compound 0.316 µM) | IC50 (second compound 1 µM) | IC50 (second compound 3.16 µM) | IC50 (second compound 10 µM)
inactive: viability, T/C [1] 102% | viability, T/C [2] 86.7% | viability, T/C [13] 97.2% | viability, T/C [14] 93.8% | viability, T/C [15] 83% | viability, T/C [16] 72.2% | viability, T/C [3] 105% | viability, T/C [4] 95.5% | viability, T/C [17] 90.3% | viability, T/C [18] 96.5% | viability, T/C [19] 82.8% | viability, T/C [20] 74.5% | viability, T/C [5] 103% | viability, T/C [6] 114% | viability, T/C [21] 90.7% | viability, T/C [22] 100% | viability, T/C [23] 93.9% | viability, T/C [24] 57.2% | viability, T/C [7] 121% | viability, T/C [8] 99.5% | viability, T/C [25] 91.8% | viability, T/C [26] 86.3% | viability, T/C [27] 74.8% | viability, T/C [28] 77.7% | viability, T/C [9] 92.8% | viability, T/C [10] 85.2% | viability, T/C [29] 101% | viability, T/C [30] 78.9% | viability, T/C [31] 74.9% | viability, T/C [32] 66.2% | viability, T/C [11] 124% | viability, T/C [12] 88.4% | viability, T/C [33] 78.3% | viability, T/C [34] 78.5% | viability, T/C [35] 83.3% | viability, T/C [36] 66.3%

CCCS(=O)(=O)Nc1ccc(F)c(C(=O)c2c[nH]c3ncc(-c4ccc(Cl)cc4)cc23)c1F + COC1C(OC(N)=O)C(O)C(Oc2ccc3c(O)c(NC(=O)c4ccc(O)c(CC=C(C)C)c4)c(=O)oc3c2C)OC1(C)C
> 10 µM: IC50 (second compound 0.0316 µM) | IC50 (second compound 0.1 µM) | IC50 (second compound 0.316 µM) | IC50 (second compound 1 µM) | IC50 (second compound 3.16 µM) | IC50 (second compound 10 µM)
inactive: viability, T/C [1] 99% | viability, T/C [2] 116% | viability, T/C [13] 107% | viability, T/C [14] 115% | viability, T/C [15] 169% | viability, T/C [16] 172% | viability, T/C [3] 101% | viability, T/C [4] 121% | viability, T/C [17] 105% | viability, T/C [18] 112% | viability, T/C [19] 157% | viability, T/C [20] 222% | viability, T/C [5] 116% | viability, T/C [6] 102% | viability, T/C [21] 102% | viability, T/C [22] 128% | viability, T/C [23] 155% | viability, T/C [24] 195% | viability, T/C [7] 117% | viability, T/C [8] 102% | viability, T/C [25] 102% | viability, T/C [26] 113% | viability, T/C [27] 143% | viability, T/C [28] 172% | viability, T/C [9] 98.7% | viability, T/C [10] 87.5% | viability, T/C [29] 140% | viability, T/C [30] 130% | viability, T/C [31] 139% | viability, T/C [32] 178% | viability, T/C [11] 112% | viability, T/C [12] 95.5% | viability, T/C [33] 111% | viability, T/C [34] 153% | viability, T/C [35] 144% | viability, T/C [36] 166%
